Test results from the supplement of paper PMC10307832.

Key:
Assay in all cases: relative viability (nuclei count vs DMSO), 5 days (fraction); higher = more cells survive
KIN001-266 + Lapatinib = compound: CCN1CCC(CC1)N2C=C(N=N2)CNC3=CC4=C(C(=CN=C4C(=C3)Cl)C#N)NC5=CC(=C(C=C5)F)Cl [KIN001-266] + CS(=O)(=O)CCNCc1ccc(-c2ccc3ncnc(Nc4ccc(OCc5cccc(F)c5)c(Cl)c4)c3c2)o1 [Lapatinib] (partner 2 µM)
Procedure, shortened: (§1)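 Dosing by pin tool came one day after lung cancer cell lines were seeded in 1536-well plates, using either one drug or a fixed anchor-drug dose plus five library-drug doses (not always all listed) in √10 steps. After 5 days, nuclei were counted on 4× images. Relative viability is treated-well nuclei count divided by vehicle-well nuclei count, and values are medians of duplicate plates.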

KIN001-266 + Dasatinib = compound: CCN1CCC(CC1)N2C=C(N=N2)CNC3=CC4=C(C(=CN=C4C(=C3)Cl)C#N)NC5=CC(=C(C=C5)F)Cl [KIN001-266] + Cc1nc(Nc2ncc(C(=O)Nc3c(C)cccc3Cl)s2)cc(N2CCN(CCO)CC2)n1 [Dasatinib] (partner 0.075 µM)
Procedure, shortened: as §1

KIN001-266 + Pemetrexed = compound: CCN1CCC(CC1)N2C=C(N=N2)CNC3=CC4=C(C(=CN=C4C(=C3)Cl)C#N)NC5=CC(=C(C=C5)F)Cl [KIN001-266] + Nc1nc2[nH]cc(CCc3ccc(C(=O)N[C@@H](CCC(=O)O)C(=O)O)cc3)c2c(=O)[nH]1 [Pemetrexed] (partner 0.2 µM)
Procedure, shortened: as §1

KIN001-266 + Crizotinib = compound: CCN1CCC(CC1)N2C=C(N=N2)CNC3=CC4=C(C(=CN=C4C(=C3)Cl)C#N)NC5=CC(=C(C=C5)F)Cl [KIN001-266] + C[C@@H](Oc1cc(-c2cnn(C3CCNCC3)c2)cnc1N)c1c(Cl)ccc(F)c1Cl [Crizotinib] (partner 1 µM)
Procedure, shortened: as §1

Cell Line	relative viability (KIN001-266 + Lapatinib; first compound 0.08 µM)	relative viability (KIN001-266 + Lapatinib; first compound 0.253 µM)	relative viability (KIN001-266 + Lapatinib; first compound 0.8 µM)	relative viability (KIN001-266 + Lapatinib; first compound 2.53 µM)	relative viability (KIN001-266 + Lapatinib; first compound 8 µM)	relative viability (KIN001-266 + Dasatinib; first compound 0.08 µM)	relative viability (KIN001-266 + Dasatinib; first compound 0.253 µM)	relative viability (KIN001-266 + Dasatinib; first compound 0.8 µM)	relative viability (KIN001-266 + Dasatinib; first compound 2.53 µM)	relative viability (KIN001-266 + Dasatinib; first compound 8 µM)	relative viability (KIN001-266 + Pemetrexed; first compound 0.08 µM)	relative viability (KIN001-266 + Pemetrexed; first compound 0.253 µM)	relative viability (KIN001-266 + Pemetrexed; first compound 0.8 µM)	relative viability (KIN001-266 + Pemetrexed; first compound 2.53 µM)	relative viability (KIN001-266 + Pemetrexed; first compound 8 µM)	relative viability (KIN001-266 + Crizotinib; first compound 0.08 µM)	relative viability (KIN001-266 + Crizotinib; first compound 0.253 µM)	relative viability (KIN001-266 + Crizotinib; first compound 0.8 µM)	relative viability (KIN001-266 + Crizotinib; first compound 2.53 µM)	relative viability (KIN001-266 + Crizotinib; first compound 8 µM)
NCI-H1915	0.959	0.974	1.02	1.02	0.993	0.369	0.316	0.357	0.396	0.292	0.507	0.466	0.504	0.469	0.575	0.895	0.87	0.902	0.918	0.851
NCI-H2009	0.981	1.07	0.905	0.927	0.645	0.382	0.313	0.302	0.274	0.201	1.03	1.04	1.01	0.996	0.903	1.05	1.05	0.984	0.928	0.901
BEN	0.779	0.764	0.77	0.835	0.953	0.296	0.362	0.292	0.274	0.345	0.982	0.776	0.919	0.68	0.744	0.756	0.815	0.948	0.811	1.04
PC-14	0.307	0.368	0.27	0.287	0.312	0.297	0.277	–	0.203	0.0481	0.161	0.133	0.164	0.113	0.186	0.92	0.972	0.817	0.852	0.571
SK-MES-1	0.47	0.522	0.414	0.405	0.418	0.418	0.356	0.357	0.337	0.247	0.873	0.912	0.903	0.833	0.79	1.02	1.09	0.948	0.923	0.888
NCI-H727	0.821	1.1	0.806	0.805	0.537	0.473	0.468	0.323	0.342	0.261	–	–	–	–	–	0.79	0.812	0.753	0.825	0.405
NCI-H1355	1.1	0.924	1.02	1.04	0.938	0.734	0.7	0.663	0.691	0.662	0.987	0.995	1.1	1	1.01	1.12	1.04	1.09	0.966	0.939
NCI-H1975	0.902	0.938	1.03	1.05	0.969	0.396	0.355	0.344	0.388	0.319	0.314	0.305	0.297	0.285	0.29	1.04	0.928	0.964	0.966	0.842
